Results as given in ChEMBL document CHEMBL1201862, “PubChem BioAssay data set” (2004).
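Method: 48-hour compound exposure of cells in 96-well plates, five concentrations, linear interpolation of endpoints. At the GI50, growth is halved.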 Active and inactive are the calls of the source. Cut-off read from the data, not from the text of the source: active = GI50 up to about 1.1 µM and inactive = higher.

Assays:
Test in all cases: inhibition of tumour cell growth, NCI panel, 48 h
A498 = system: A498
A549 = system: A549
ACHN = system: ACHN
COLO 205 = system: COLO 205
DU-145 = system: DU-145
HCT-15 = system: HCT-15
HOP-62 = system: HOP-62
IGROV-1 = system: IGROV-1
MDA-MB-231 = system: MDA-MB-231
NCI-H226 = system: NCI-H226
NCI-H460 = system: NCI-H460
OVCAR-4 = system: OVCAR-4
OVCAR-8 = system: OVCAR-8
RXF 393 = system: RXF 393
SK-MEL-28 = system: SK-MEL-28
SK-MEL-5 = system: SK-MEL-5
SN12C = system: SN12C
UACC-257 = system: UACC-257
UO-31 = system: UO-31
T47D = system: T47D

SMILES | GI50 (A498) | GI50 (A549) | GI50 (ACHN) | GI50 (COLO 205) | GI50 (DU-145) | GI50 (HCT-15) [µM] | GI50 (HOP-62) | GI50 (IGROV-1) | GI50 (MDA-MB-231) | GI50 (NCI-H226) | GI50 (NCI-H460) | GI50 (OVCAR-4) | GI50 (OVCAR-8) | GI50 (RXF 393) | GI50 (SK-MEL-28) | GI50 (SK-MEL-5) | GI50 (SN12C) | GI50 (UACC-257) | GI50 (UO-31) | GI50 (T47D)
N#C/C(C(=S)Nc1ccccc1)=C(/N)N1CCCC1 | > 100 µM (inactive) | > 100 µM (inactive) | > 100 µM (inactive) | > 100 µM (inactive) | > 100 µM (inactive) | > 100 | > 100 µM (inactive) | > 100 µM (inactive) | > 100 µM (inactive) | > 100 µM (inactive) | > 100 µM (inactive) | > 100 µM (inactive) | > 100 µM (inactive) | > 100 µM (inactive) | > 100 µM (inactive) | > 100 µM (inactive) | > 100 µM (inactive) | > 100 µM (inactive) | 46.7 µM (inactive) | –
CC1CC(N)=Nc2ccccc2N1Cc1ccccc1 (centres undefined) | 11.2 µM (inactive) | 17.4 µM (inactive) | 15.2 µM (inactive) | 14.9 µM (inactive) | 16.6 µM (inactive) | 15.8 | 13 µM (inactive) | 7.6 µM (inactive) | 14.4 µM (inactive) | 15.7 µM (inactive) | 13.9 µM (inactive) | 16.5 µM (inactive) | 14.6 µM (inactive) | 12 µM (inactive) | 11.6 µM (inactive) | 14.7 µM (inactive) | 16.6 µM (inactive) | 12.9 µM (inactive) | 21.9 µM (inactive) | –
CC(C)[C@H]1C(=O)O[B@-](F)(c2ccccc2)/[N+]1=C\N(C)C | – | > 100 µM (inactive) | > 100 µM (inactive) | > 100 µM (inactive) | > 100 µM (inactive) | > 100 | > 100 µM (inactive) | > 100 µM (inactive) | > 100 µM (inactive) | > 100 µM (inactive) | > 100 µM (inactive) | 30.1 µM (inactive) | > 100 µM (inactive) | – | > 100 µM (inactive) | > 100 µM (inactive) | > 100 µM (inactive) | > 100 µM (inactive) | > 100 µM (inactive) | > 100 µM (inactive)
C(=C\c1c2oc(-c3ccccc3)cc(-c3ccccc3)c-2c2ccccc12)/C=C1\c2ccccc2-c2c(-c3ccccc3)cc(-c3ccccc3)[o+]c21.[O-][Cl+3]([O-])([O-])[O-] | > 100 µM (inactive) | > 100 µM (inactive) | > 100 µM (inactive) | > 100 µM (inactive) | – | > 100 | > 100 µM (inactive) | > 100 µM (inactive) | – | > 100 µM (inactive) | > 100 µM (inactive) | > 100 µM (inactive) | > 100 µM (inactive) | > 100 µM (inactive) | > 100 µM (inactive) | > 100 µM (inactive) | > 100 µM (inactive) | > 100 µM (inactive) | > 100 µM (inactive) | –
O=C=NCCCCCCN1C(=O)N2C(c3ccccc3)N(CCCCCCN=C=O)C(=O)N2C1c1ccccc1 (centres undefined) | > 100 µM (inactive) | > 100 µM (inactive) | > 100 µM (inactive) | > 100 µM (inactive) | > 100 µM (inactive) | > 100 | > 100 µM (inactive) | > 100 µM (inactive) | > 100 µM (inactive) | > 100 µM (inactive) | > 100 µM (inactive) | > 100 µM (inactive) | > 100 µM (inactive) | > 100 µM (inactive) | > 100 µM (inactive) | > 100 µM (inactive) | > 100 µM (inactive) | > 100 µM (inactive) | > 100 µM (inactive) | –
CC1N(O)C(c2ccccc2)C(c2ccccc2)=[N+]1[O-] (centres undefined) | > 100 µM (inactive) | > 100 µM (inactive) | > 100 µM (inactive) | > 100 µM (inactive) | – | > 100 | > 100 µM (inactive) | > 100 µM (inactive) | > 100 µM (inactive) | > 100 µM (inactive) | > 100 µM (inactive) | > 100 µM (inactive) | > 100 µM (inactive) | > 100 µM (inactive) | > 100 µM (inactive) | > 100 µM (inactive) | > 100 µM (inactive) | > 100 µM (inactive) | > 100 µM (inactive) | –
O=c1oc2ccccc2[n+]([O-])c1-c1ccccc1 | > 100 µM (inactive) | > 100 µM (inactive) | > 100 µM (inactive) | > 100 µM (inactive) | – | > 100 | > 100 µM (inactive) | > 100 µM (inactive) | – | > 100 µM (inactive) | > 100 µM (inactive) | > 100 µM (inactive) | > 100 µM (inactive) | > 100 µM (inactive) | > 100 µM (inactive) | > 100 µM (inactive) | > 100 µM (inactive) | > 100 µM (inactive) | > 100 µM (inactive) | –
O=c1[nH]c2[nH]c(-c3ccc(Br)cc3)cc2c2ccccc12 | > 100 µM (inactive) | – | 66.8 µM (inactive) | 34.7 µM (inactive) | > 100 µM (inactive) | > 100 | 22.1 µM (inactive) | > 100 µM (inactive) | 15 µM (inactive) | 43.5 µM (inactive) | > 100 µM (inactive) | 24.7 µM (inactive) | 23.3 µM (inactive) | 24.7 µM (inactive) | > 100 µM (inactive) | > 100 µM (inactive) | 41.4 µM (inactive) | > 100 µM (inactive) | > 100 µM (inactive) | –
COc1cccc2c1C1=CC(=O)CCC1C(C)(C)O2 (centres undefined) | > 100 µM (inactive) | > 100 µM (inactive) | > 100 µM (inactive) | 67.6 µM (inactive) | – | > 100 | > 100 µM (inactive) | > 100 µM (inactive) | – | > 100 µM (inactive) | 35.9 µM (inactive) | > 100 µM (inactive) | > 100 µM (inactive) | 6.03 µM (inactive) | > 100 µM (inactive) | > 100 µM (inactive) | > 100 µM (inactive) | > 100 µM (inactive) | > 100 µM (inactive) | –
C=C/C=C(\NC(=O)C(Cl)(Cl)Cl)[Si](C)(C)C | > 100 µM (inactive) | > 100 µM (inactive) | > 100 µM (inactive) | > 100 µM (inactive) | – | > 100 | > 100 µM (inactive) | > 100 µM (inactive) | – | > 100 µM (inactive) | > 100 µM (inactive) | > 100 µM (inactive) | > 100 µM (inactive) | > 100 µM (inactive) | > 100 µM (inactive) | > 100 µM (inactive) | > 100 µM (inactive) | > 100 µM (inactive) | > 100 µM (inactive) | –
COC(=O)C1C=CCON2CCc3c(n(S(=O)(=O)c4ccccc4)c4ccccc34)C12 (centres undefined) | > 100 µM (inactive) | 50.1 µM (inactive) | 65.3 µM (inactive) | 33.5 µM (inactive) | – | 50.8 | > 39.2 µM (inactive) | > 55.3 µM (inactive) | – | > 46.2 µM (inactive) | 52.6 µM (inactive) | > 31.6 µM (inactive) | 50.9 µM (inactive) | > 67.5 µM (inactive) | > 100 µM (inactive) | 34.4 µM (inactive) | 60 µM (inactive) | 50.1 µM (inactive) | 42.9 µM (inactive) | –
CC(C)N1CC2CC(CN(C(=O)c3ccc(Cl)cc3)C2)C1 | > 100 µM (inactive) | > 100 µM (inactive) | > 100 µM (inactive) | > 100 µM (inactive) | – | > 100 | > 100 µM (inactive) | > 100 µM (inactive) | – | > 100 µM (inactive) | > 100 µM (inactive) | > 100 µM (inactive) | > 100 µM (inactive) | > 100 µM (inactive) | > 100 µM (inactive) | > 100 µM (inactive) | > 100 µM (inactive) | > 100 µM (inactive) | > 100 µM (inactive) | –
CC1(C)CC(=O)C(=CNc2nc(-c3ccc(Br)cc3)cs2)C(=O)C1 | – | 51.4 µM (inactive) | 37 µM (inactive) | 31.2 µM (inactive) | 43.9 µM (inactive) | 21.2 | 31.3 µM (inactive) | 29.6 µM (inactive) | 31.8 µM (inactive) | 45.3 µM (inactive) | 31.1 µM (inactive) | 37.5 µM (inactive) | 51.1 µM (inactive) | – | 34 µM (inactive) | 32.6 µM (inactive) | 39.7 µM (inactive) | 18.5 µM (inactive) | 21.9 µM (inactive) | 32.9 µM (inactive)
O=S(=O)(c1ccc(-c2nnc(-c3ccc(F)cc3)o2)cc1)c1ccc(-c2nnc(-c3ccc(F)cc3)o2)cc1 | 25.5 µM (inactive) | > 100 µM (inactive) | 14.7 µM (inactive) | > 100 µM (inactive) | > 100 µM (inactive) | > 100 | 27 µM (inactive) | > 100 µM (inactive) | – | 61.5 µM (inactive) | > 100 µM (inactive) | > 100 µM (inactive) | > 100 µM (inactive) | 22.2 µM (inactive) | – | > 100 µM (inactive) | > 100 µM (inactive) | > 100 µM (inactive) | > 100 µM (inactive) | > 100 µM (inactive)
CCc1n[nH]c(=O)n1/N=C/c1c(O)ccc2ccccc12 | – | > 100 µM (inactive) | > 100 µM (inactive) | > 100 µM (inactive) | > 100 µM (inactive) | > 100 | > 100 µM (inactive) | > 100 µM (inactive) | > 100 µM (inactive) | – | – | > 100 µM (inactive) | > 100 µM (inactive) | > 100 µM (inactive) | > 100 µM (inactive) | > 100 µM (inactive) | > 100 µM (inactive) | > 100 µM (inactive) | > 100 µM (inactive) | –
O=C1/C(=C/c2ccc(Cl)cc2)CCC1CNc1ccc(Cl)cc1 (centres undefined) | 14.9 µM (inactive) | 7.8 µM (inactive) | 1.57 µM (inactive) | 2.46 µM (inactive) | 13.5 µM (inactive) | 2.37 | 19.9 µM (inactive) | 6.12 µM (inactive) | 6.7 µM (inactive) | 28.4 µM (inactive) | 7.96 µM (inactive) | 18.9 µM (inactive) | 2.42 µM (inactive) | 11.6 µM (inactive) | 15.6 µM (inactive) | 3.33 µM (inactive) | 10.2 µM (inactive) | 13.8 µM (inactive) | 5.35 µM (inactive) | –
